{
  "source": "patent US20210299079A1",
  "about": "“MONOMETHYL FUMARATE-CARRIER CONJUGATES AND METHODS OF THEIR USE” (Flagship Pioneering Innovations V, Inc., priority 2018, published 2021)",
  "key": {"[1]": {"target": "T1, AhR (Homo sapiens, UniProt P35869)", "T1 sequence (P35869 11-848)": "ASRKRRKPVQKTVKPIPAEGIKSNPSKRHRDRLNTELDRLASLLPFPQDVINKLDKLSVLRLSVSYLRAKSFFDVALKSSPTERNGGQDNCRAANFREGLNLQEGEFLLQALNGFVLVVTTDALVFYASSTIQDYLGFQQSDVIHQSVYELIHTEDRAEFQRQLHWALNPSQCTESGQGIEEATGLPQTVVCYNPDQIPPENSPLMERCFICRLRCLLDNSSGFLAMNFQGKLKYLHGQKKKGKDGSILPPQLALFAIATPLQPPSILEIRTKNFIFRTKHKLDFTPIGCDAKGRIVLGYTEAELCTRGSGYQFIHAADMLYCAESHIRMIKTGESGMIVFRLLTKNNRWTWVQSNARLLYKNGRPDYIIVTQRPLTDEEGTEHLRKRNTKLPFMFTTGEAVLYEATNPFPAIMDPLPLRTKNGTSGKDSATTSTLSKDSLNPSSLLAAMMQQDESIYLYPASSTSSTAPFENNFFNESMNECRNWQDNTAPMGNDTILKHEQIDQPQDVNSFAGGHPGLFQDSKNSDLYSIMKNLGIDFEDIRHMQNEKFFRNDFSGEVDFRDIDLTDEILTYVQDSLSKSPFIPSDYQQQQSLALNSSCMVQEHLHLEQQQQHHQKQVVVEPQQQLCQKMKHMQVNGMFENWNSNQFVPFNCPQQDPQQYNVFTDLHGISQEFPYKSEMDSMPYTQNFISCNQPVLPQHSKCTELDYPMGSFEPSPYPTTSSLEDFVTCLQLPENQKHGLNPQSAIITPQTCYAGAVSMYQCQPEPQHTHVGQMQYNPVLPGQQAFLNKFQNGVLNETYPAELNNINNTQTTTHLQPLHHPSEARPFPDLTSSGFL", "assay": "AhR Activation in Caco-2 Cells Through CYP1A1 mRNA Expression", "details": "overnight", "method": "Caco-2 cells from American Type Culture Collection (ATCC) were plated in a sterile tissue culture treated 96-well plate (ThermoFisher) at 8.0×10^5 cells per well, and grown overnight at 37° C., 5% CO2 in DMEM complete (Gibco) in order to achieve confluence. After the incubation medium was aspirated off of the Caco-2 monolayers, tissues were then washed with 200 μL of warmed PBS solution, and subsequently 190 μL of pre-warmed growth medium was added to each well. Compounds of interest were diluted at a 20× concentration in growth medium containing 2% DMSO, and 10 μL of compound solutions were added to respective wells in triplicate. Compounds where incubated overnight at 37° C., 5% CO2. 2-(1′H-indole-3′-carbonyl)-thiazole-4-carboxylic acid methyl ester (ITE) was used as the positive control for AhR activation at 1 and 100 μM concentrations. At the end of the incubation, medium was aspirated off of the Caco-2 cells, and washed with 100 μL of cold PBS solution. RNA was extracted via the TaqMan™ Gene Expression Cells-to-CT™ Kit (ThermoFisher) according to the manufacturer's protocol. The QuantStudio 6 Flex (Applied Biosciences) was used to analyze mRNA levels of CYP1A1 using GAPDH as the endogenous control. TaqMan™ probe sets for both genes were acquired from ThermoFisher. Samples were run in triplicate and data was analyzed using the QuantStudio software and reported as linear (Table 6) and log 2(ΔΔCT) values. Statistical analysis was performed using a two-tailed t-test comparing CYP1A1 levels in the presence of each individual compound to the vehicle negative control."}, "[2]": {"test_system": "experimental autoimmune encephalomyelitis (EAE)", "assay": "In Vivo EAE Model of Multiple Sclerosis", "design": "species or system C57BL/6J mice", "method": "For experimental autoimmune encephalomyelitis (EAE) study, 8- to 11-week-old C57BL/6J mice were anesthetized and subcutaneously injected with […] and […]. Pertussis toxin (200 ng/mouse) was applied i.p. on days 0. Daily clinical evaluation was performed via a 5-point scale, and the clinical progression was observed over 28 days (FIG. 2A). […] At the end of the study, flow cytometry analysis was performed on the spleen (n=8 per group). […] Statistical analysis was performed with GraphPad Prism (GraphPad Software). Unpaired t test was used to assess significance between the control (Vehicle) and each treatment group. For experimental autoimmune encephalomyelitis (EAE) studies, 8- to 11-week old C57BL/6J mice were anesthetized and subcutaneously injected with […] and […]. Pertussis toxin (200 ng/mouse) was applied intraperitoneally on day 0. Daily clinical evaluation as performed using a 5-point scale and the clinical progression was observed over 28 days (FIGS. 2C and 2D)."}, "[3]": {"test_system": "IL-6", "assay": "Cytokine Release from Human PBMCs: IL-6", "assay_type": "cell-based", "details": "LPS, 24 hours, Concentration 100 μM", "method": "(§1) Human donor blood (8 mL) was collected in sodium citrate CPT tubes and centrifuged at 1,600×g for 20 minutes at room temperature. Buffy coat containing PBMCs was collected and transferred to a 50 mL conical tube containing 30 mL of RPMI-1640 medium at room temperature (supplemented with penicillin-streptomycin). PBMCs samples were centrifuged at 400×g for 10 minutes at 10° C. The pelleted PBMCs were washed twice in 10 ml of RPMI-1640 medium (supplemented with penicillin-streptomycin), then resuspended in RPMI-1640 medium (supplemented with penicillin-streptomycin, fetal bovine serum, and L-Glutamine). PBMCs were filtered through a 70 micron mesh to remove any cellular debris. […] PBMCs in a 96-well plate were rested for 30 minutes in a 37° C., 5% CO2 incubator, then subsequently treated with 10 μI of indicated compound. After 2 hours 10 μL of LPS (0111:64) 1 mg/mL was added to test wells. After 24 hours of incubation at 37° C., 5% CO2, 100 μL of cell supernatant was collected and transferred to a 96-well plate (non-tissue treated, flat bottom). The plate was centrifuged at 350×g for 5 minutes at room temperature, and then the clear supernatant transferred to a new 96-well plate (non-tissue treated, flat bottom). The remaining cells were tested for viability using CellTiter-Glo® Luminescent Cell Viability Assay (Promega). The supernatant was analyzed for TNFα, IL-6 and IL-1β (kit […] Systems), using Luminex Immunoassay Technology (MAGPIX System)."}, "[4]": {"test_system": "IL-1β", "assay": "Cytokine Release from Human PBMCs: IL-1β", "assay_type": "cell-based", "details": "LPS, 24 hours, Concentration 100 μM", "method": "as §1"}},
  "data": [
    {"molecule": "CCC(=O)O", "note": "[propionate]", "values": [
      {"measurement": "Average CYP1A1 mRNA levels", "setting": "[1]; Conc. 1000.0 μM", "value": "− (− = <2-fold Vehicle)"},
      {"measurement": "Average CYP1A1 mRNA levels", "setting": "[1]; Conc. 3000.0 μM", "value": "− (− = <2-fold Vehicle)"},
      {"measurement": "EAE score (5-point scale) compared to control (vehicle only)", "setting": "[2]; Study 1, 200 mM in drinking water, 28 days", "value": "lower EAE scores"},
      {"measurement": "TH17 cell (CD3+)/regulatory T cells (CD3+, Foxp3+) ratio", "setting": "[2]; Study 1, spleen flow cytometry at end of study, 200 mM in drinking water, vs vehicle, P<0.05", "value": "significantly reduced"},
      {"measurement": "IL6 % DMSO control", "setting": "[3]", "value": "+ ((+) 50% > <90% DMSO)"},
      {"measurement": "IL1β % DMSO control", "setting": "[4]", "value": "+ ((+) 50% > <90% DMSO)"}
    ]}
  ]
}
